In data set [1] the target is T1, calf intestinal alkaline phosphatase (CIAP) (Bos taurus, UniProt P19111). Briefly: Alkaline phosphatase inhibition assay (spectrophotometric, p-NPP substrate). It is filed as biochemical. As to conditions: for IC50: CIAP, p-NPP substrate, pH 9.5, 37 °C, mean ± SEM. How it is done:
As previously mentioned, spectrophotometric analysis was used to evaluate the activity of calf intestinal alkaline phosphatase (CIAP). The reaction mixture contained 50 mM Tris-HCl buffer (5 mM MgCl2, 0.1 mM ZnCl2 pH 9.5), the 10 µL compound, and it was preincubated for 10 min by adding 5 µL of CIAP (0.025 U/mL). Then, 10 µL of a substrate (0.5 mM p-NPP (para nitrophenyl phosphate disodium salt)) was delivered to initiate the response, and therefore the assay mixture became incubated once more for 30 min at 37 °C. The change in absorbance of released p-nitrophenolate was monitored at 405 nm, using a 96-well microplate reader (Thermo Scientific Multiskan GO, USA). All the experiments were repeated three times in a triplicate manner. […] The inhibition activity was calculated according to the following equation: Inhibition (%)=[(Blank−Sample)/Blank]×100
For calculation of the IC50 values, 6–8 serial dilutions were used and the results examined using the non-linear regression analysis of GraphPad Prism 5 [69].

A short description of the next data set: MTT cell viability assay. The class given is cell-based. As to conditions: human, MG-63 osteosarcoma cells, MG-63 cells. As for the experimental part: The human osteosarcoma MG-63 cells were acquired from the Korean Cell Line Bank (Seoul, Korea). The MG-63 cell lines were incubated in the humidified atmosphere at 37 °C containing 5% CO2 and maintained in the DMEM (Sigma, St. Louis, MO, USA), supplemented with 10% fetal bovine serum (FBS, WELGENE, Korea) and 50 unit/mL penicillin (Sigma) and 50 μg/mL streptomycin (Sigma). The medium was completely renewed every two days. The synthesized compounds were completely dissolved in dimethyl sulfoxide (DMSO) and further diluted to various concentrations (0, 0.5, 1, 2, and 4 µM). The control groups were treated with the same amount of DMSO. MTT assay technique was applied to check the toxic effect of our compounds. The MG-63 cell lines were seeded onto 96-well plates at a density of 0.4 × 10^5 cells/well with the medium for 24 h. After reaching 50% density, the cells were exposed to synthesized target compounds at the dose of 0, 0.5, 1, 2, and 4 µM for 24 h in media. […] After 24 h, the cell sustained 100 μL DMEM containing of 0.5 mg/mL 3-(4,5-dimethylthiazol-2-yl)-2,5-diphenyltetrazolium bromide (MTT) at 37 °C for 4 h. Then, the purple formazan crystals were dissolved with 100 μL of buffer (10% SDS, 0.01 N HCl). Finally, the absorbance was measured at 570 nm using a microplate reader (Thermo Fisher, Waltham, MA, USA).
(Tetrazolium dyes change colour on reduction, which living cells bring about.)

Data set [2] addresses T1, calf intestinal alkaline phosphatase (CIAP). The data set is described as follows: Kinetic mechanism analysis (Lineweaver-Burk plot). The class given is biochemical. As for the experimental part: The inhibitor (7g), and substrate p-NPP concentrations were used at 0.00, 0.023, 0.045 and 0.091 µM, 10, 5, 2.5, 1.25, 0.625 and 0.3125 mM, respectively. The pre-incubation time and other conditions were the same as those mentioned in the section on the CIAP assay. Maximal initial velocities were determined from the initial linear portion of absorbances up to 10 min after the addition of enzyme per minute interval. The inhibition type of the enzyme was assayed by the Lineweaver–Burk plot of inverse velocities (1/V) versus the inverse of substrate concentration 1/[S] mM^−1. The EI dissociation constant Ki was determined by a secondary plot of 1/V versus inhibitor concentration.

Data set [3] is described as follows: DPPH free radical scavenging assay. As to conditions: 100 µg/mL. As for the experimental part:
Free radical scavenging activity was determined by modifying the method by DPPH assay. The assay solution composed of the 100 μL of DPPH (150 μM) and 20 μL of the sample (100 μg/mL) was introduced to gain the final volume of each well up to 200 μL with methyl alcohol. Then, it was incubated in the dark at room temperature for the following half-hour. Ascorbic acid (Vitamin C) was used as a reference inhibitor. The measurements were performed by using a microplate reader (Thermo Scientific Multiskan GO, USA) at 517 nm. Each experiment was carried out in triplicate.
For orientation: DPPH is a stable violet radical that fades when it is reduced.

Data set [4] deals with tissue-specific isozymes (PLALP, GCALP, and IALP) versus L/B/K ALPs. Also on record: method as in PMID 2178806. As to conditions: cited from earlier work.
For a further data set, the target named is ALP. Particulars: ALP inhibitors; cited from earlier work.

“Also recorded” adds a separate entry of the source.

This is an account of results in paper PMC9654533, “Potent Alkaline Phosphatase Inhibitors, Pyrazolo-Oxothiazolidines: Synthesis, Biological Evaluation, Molecular Docking, and Kinetic Studies” (International Journal of Molecular Sciences, 2022).

T1 sequence (P19111 20-533): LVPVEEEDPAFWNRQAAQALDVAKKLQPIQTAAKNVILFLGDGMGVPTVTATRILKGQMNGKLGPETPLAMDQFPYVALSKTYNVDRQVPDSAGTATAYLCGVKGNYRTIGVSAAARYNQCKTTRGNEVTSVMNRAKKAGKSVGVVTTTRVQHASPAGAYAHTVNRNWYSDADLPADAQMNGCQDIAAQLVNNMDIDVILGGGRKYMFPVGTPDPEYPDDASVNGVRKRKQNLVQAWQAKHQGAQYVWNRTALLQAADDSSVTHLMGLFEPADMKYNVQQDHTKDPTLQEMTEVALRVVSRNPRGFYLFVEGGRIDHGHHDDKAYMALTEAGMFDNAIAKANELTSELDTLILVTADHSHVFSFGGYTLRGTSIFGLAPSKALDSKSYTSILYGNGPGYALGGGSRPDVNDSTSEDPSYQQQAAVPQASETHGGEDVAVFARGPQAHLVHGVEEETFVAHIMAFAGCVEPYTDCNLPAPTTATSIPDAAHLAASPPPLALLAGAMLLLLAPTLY

In general, IC50 refers to the midpoint of a concentration-inhibition curve. What is called melting point is the temperature, or range, at which the solid turns liquid. In turn, `CCOC(=O)C=C1SC(N2N=C(c3ccccc3)CC2c2ccc(Br)cc2)=NC1=O` (stereo not drawn) [Compound 7a, Ethyl-2-(2-(5-(4-bromophenyl)-3-phenyl-4,5-dihydro-1H-pyrazol-1-yl)-4-oxothiazol-5(4H)-ylidene)acetate] gave a melting point of 242 to 244 °C. In data set [1], this compound registered an IC50 of 53 ± 1 nM.

`CCOC(=O)C=C1SC(N2N=C(c3ccccc3)CC2c2ccc(C)cc2)=NC1=O` (stereo not drawn) [Compound 7b, Ethyl-2-(4-oxo-2-(3-phenyl-5-(p-tolyl)-4,5-dihydro-1H-pyrazol-1-yl)thiazol-5(4H)-ylidene)acetate] gave a melting point of 226 to 228 °C. Also, half-maximal inhibition in data set [1] (IC50) required 2300 ± 151 nM.

In the case of `CCOC(=O)C=C1SC(N2N=C(c3ccccc3)CC2c2ccc(OC)cc2)=NC1=O` (stereo not drawn) [Compound 7c, Ethyl-2-(2-(5-(4-methoxyphenyl)-3-phenyl-4,5-dihydro-1H-pyrazol-1-yl)-4-oxothiazol-5(4H)-ylidene)acetate], the melting point lay in the range of 236 to 238 °C. In data set [1], the 50% inhibitory concentration (IC50) is 198 ± 18 nM.

As to `CCOC(=O)C=C1SC(N2N=C(c3ccccc3)CC2c2ccc(OCc3ccccc3)c(OC)c2)=NC1=O` (stereo not drawn) [Compound 7d, Ethyl-2-(2-(5-(4-(benzyloxy)-3-methoxyphenyl)-3-phenyl-4,5-dihydro-1H-pyrazol-1-yl)-4-oxothiazol-5(4H)-ylidene)acetate], the melting point was 202 to 204 °C. In data set [1], this compound had an IC50 of 293 ± 39 nM.

Usually viability stands for a per cent measure of how many cells are alive, often set against a control. Read a low viability as more harm to the cells. Compound `CCOC(=O)C=C1SC(N2N=C(c3ccc(OC)cc3)CC2c2ccc(C)cc2)=NC1=O` (stereo not drawn) [Compound 7e, Ethyl-2-(2-(3-(4-methoxyphenyl)-5-(p-tolyl)-4,5-dihydro-1H-pyrazol-1-yl)-4-oxothiazol-5(4H)-ylidene)acetate] showed a melting point of 208 to 210 °C. In the data set “MTT cell viability assay”, this compound gave a viability at 24 h, 4 µM of at most 70%. Moreover, the midpoint of inhibition in data set [1], the IC50, lay at 228 ± 12 nM.

For `CCOC(=O)C=C1SC(N2N=C(c3ccc(OC)cc3)CC2c2ccc(Cl)cc2Cl)=NC1=O` (stereo not drawn) [Compound 7f, Ethyl-2-(2-(5-(2,4-dichlorophenyl)-3-(4-methoxyphenyl)-4,5-dihydro-1H-pyrazol-1-yl)-4-oxothiazol-5(4H)-ylidene)acetate], the melting point is above 260 °C. Half-maximal inhibition in data set [1] (IC50) was put at 566 ± 48 nM.

A word on the Ki: it is the equilibrium dissociation constant of an inhibitor or competing ligand from its target. Broadly, the Km is the substrate concentration at which the rate is half of its maximum. Compound `CCOC(=O)C=C1SC(N2N=C(c3ccc(OC)cc3)CC2c2ccc(OCc3ccccc3)c(OC)c2)=NC1=O` (stereo not drawn) [Compound 7g, Ethyl-2-(2-(5-(4-(benzyloxy)-3-methoxyphenyl)-3-(4-methoxyphenyl)-4,5-dihydro-1H-pyrazol-1-yl)-4-oxothiazol-5(4H)-ylidene)acetate] came in with a melting point of 228 to 230 °C. Also, the “Inhibition Type” value in data set [2] (Lineweaver-Burk plot, substrate p-NPP) is reported as “non-competitively; also recorded: Non-Competitive”. Moreover, the Vmax in data set [2] (inhibitor 7g concentration 0.023 µM) is 0.0014 ΔA/Min. Besides, the Vmax in data set [2] (inhibitor 7g concentration 0.045 µM) is reported as 0.0011 ΔA/Min. Also, the Vmax in data set [2] (inhibitor 7g concentration 0.091 µM) is 0.0009 ΔA/Min. In addition, the inhibition constant (Ki) in data set [2] (secondary plot of slope versus inhibitor concentration, read-out: Ki (EI dissociation constant)) was 93 nM. The Km in data set [2] (substrate p-NPP, inhibitor 7g concentration 0.023 µM) worked out at 500 µM. For the same compound, the Michaelis constant (Km) in data set [2] (substrate p-NPP, inhibitor 7g concentration 0.045 µM) amounted to 500 µM. In addition, the Km in data set [2] (substrate p-NPP, inhibitor 7g concentration 0.091 µM) amounted to 500 µM. The same compound returned a concentration for half-maximal inhibition (IC50) in data set [1] of 45 ± 4 nM. Further, in data set [1] (versus standard reference monopotassium phosphate), the “fold more active than monopotassium phosphate (IC50 ratio)” value was found to be 116 fold. Besides, the “DPPH free radical scavenging (inhibition)” value in data set [3] is listed as 29.7%.

The compound `CCOC(=O)C=C1SC(N2N=C(c3ccc(OC)cc3)CC2c2ccc(Br)cc2)=NC1=O` (stereo not drawn) [Compound 7h, Ethyl-2-(2-(5-(4-bromophenyl)-3-(4-methoxyphenyl)-4,5-dihydro-1H-pyrazol-1-yl)-4-oxothiazol-5(4H)-ylidene)acetate] had a melting point of 218 to 220 °C. For the same compound, the half-maximal inhibitory concentration (IC50) in data set [1] was 907 ± 41 nM.

As for `CCOC(=O)C=C1SC(N2N=C(c3ccc(OC)cc3)CC2c2ccc(F)cc2)=NC1=O` (stereo not drawn) [Compound 7i, Ethyl-2-(2-(5-(4-fluorophenyl)-3-(4-methoxyphenyl)-4,5-dihydro-1H-pyrazol-1-yl)-4-oxothiazol-5(4H)-ylidene)acetate], the melting point is 210 to 212 °C. In data set [1], this compound registered a concentration for half-maximal inhibition (IC50) of 315 ± 17 nM.

As to `CCOC(=O)C=C1SC(N2N=C(c3ccc(OC)cc3)CC2c2ccccc2)=NC1=O` (stereo not drawn) [Compound 7j, Ethyl-2-(2-(3-(4-methoxyphenyl)-5-phenyl-4,5-dihydro-1H-pyrazol-1-yl)-4-oxothiazol-5(4H)-ylidene)acetate], the melting point lay within 167 to 169 °C. In addition, in the data set “MTT cell viability assay”, the viability at 24 h, 4 µM was at most 70%. The same compound registered an IC50 in data set [1] of 434 ± 11 nM.

`CCOC(=O)C=C1SC(N2N=C(c3ccc(OC)cc3)CC2c2ccc(OC)cc2)=NC1=O` (stereo not drawn) [Compound 7k, Ethyl-2-(2-(3,5-bis(4-methoxyphenyl)-4,5-dihydro-1H-pyrazol-1-yl)-4-oxothiazol-5(4H)-ylidene)acetate] returned a melting point of 208 to 210 °C. Besides, 75 ± 5 nM corresponded to half-maximal inhibition in data set [1] (IC50).

The compound `CCOC(=O)C=C1SC(N2N=C(c3ccccc3)CC2c2ccc(Cl)cc2)=NC1=O` (stereo not drawn) [Compound 7l, Ethyl-2-(2-(5-(4-chlorophenyl)-3-phenyl-4,5-dihydro-1H-pyrazol-1-yl)-4-oxothiazol-5(4H)-ylidene)acetate] registered a melting point of 251 to 253 °C. The same compound had an IC50 in data set [1] of 51 ± 19 nM.

Compound `CCOC(=O)C=C1SC(N2N=C(c3ccc(OC)cc3)CC2c2ccc(Cl)cc2)=NC1=O` (stereo not drawn) [Compound 7m, Ethyl-2-(2-(5-(4-chlorophenyl)-3-(4-methoxyphenyl)-4,5-dihydro-1H-pyrazol-1-yl)-4-oxothiazol-5(4H)-ylidene)acetate] returned a melting point of 220 to 222 °C. The compound also yielded a viability at 24 h, 4 µM in the data set “MTT cell viability assay” of at most 70%. Also, in data set [1], half-maximal inhibition (IC50) required 302 ± 4 nM.

On to `CCOC(=O)C=C1SC(N2N=C(c3ccccc3)CC2c2ccccc2)=NC1=O` (stereo not drawn) [Compound 7n, Ethyl-2-(2-(3,5-diphenyl-4,5-dihydro-1H-pyrazol-1-yl)-4-oxothiazol-5(4H)-ylidene)acetate], for which the melting point was in the range of 216 to 218 °C. In data set [1], this compound came in with a half-maximal inhibitory concentration (IC50) of 2990 ± 734 nM.

For the compound `N[C@@H](Cc1ccccc1)C(=O)O` [L-phenylalanine], in data set [4], the “sensitivity of inhibition of tissue-specific isozymes (PLALP, GCALP, IALP) relative to L/B/K ALPs” value is on record as 30 times.

Compound `C#Cc1cccc(Nc2ncnc3cc(OCCOC)c(OCCOC)cc23)c1` [erlotinib, reference compound] yielded a viability at 24 h, 2 µM in the data set “MTT cell viability assay” (first three treatments (0.5, 1, 2 µM)) above 90%.

On to `c1ccc([C@H]2CN3CCSC3=N2)cc1` [levamisole], for which the Ki at ALP was 16000 nM.

For `Cn1c(=O)c2[nH]cnc2n(C)c1=O` [theophylline], the inhibitory constant (Ki) at ALP was 82000 nM.
